# In patent US20220152045A1 (priority 2012, published 2022):
# Read-outs that look alike come from different tables or passages of the source.
# Experiments:
# [1] = test system: non-human animal (for example, a monkey); assay: Continuous intravenous administration to a non-human animal, vasostimulant; type: in vivo; details: continuous i.v. 1 mg/kg/h to 2 mg/kg/h for several hours (4 to 6 hours), in the neighborhood of an effective dose
# Excerpt: It can be said that this is an astonishingly excellent effect provided by the dosing regimen of the invention.
# [2] = test system: surgery patients at the age of 20 or older and younger than 65; details: in vivo
# [3] = test system: surgery patients at the age of 20 or older and younger than 65; details: in vivo; remark: listed apart in the source
# [4] = test system: surgery patients at the age of 65 or older; details: in vivo
# [5] = test system: surgery patients at the age of 65 or older; details: in vivo; remark: listed apart in the source
# [6] = test system: patients; assay: Clinical trials of the Examples taken together (85 cases of patients in total); details: dosing regimen of the invention, amount per kg equal to or more than in the preceding animal tests
smiles,measurement,setting,value
"COC(=O)CC[C@@H]1N=C(c2ccccn2)c2cc(Br)ccc2-n2c(C)cnc21.O=S(=O)(O)c1ccccc1 [Compound B, Methyl 3-[(4S)-8-bromo-1-methyl-6-(2-pyridinyl)-4H-imidazo[1,2-a][1,4]benzodiazepin-4-yl]propanoate benzenesulfonate]",Vasostimulant,[1],vasostimulant is observed
same,Other side effects to be concerned or abnormal laboratory data,[2],not observed
same,"Number of test subjects who developed hypotension, adverse event",[3]; human,3 patients
same,Proportion of test subjects who developed hypotension as a side effect,[3]; human,10%
same,Average time until the patient opened eyes,[3],13.9 min
same,Average time until the patient stated the date of birth,[3],21.5 min
same,Average time until the patient were allowed to leave the surgery room,[3],25.5 min
same,Average time until the trachea was extubated,[3],16.4 min
same,Other side effects to be concerned or abnormal laboratory data,[3],not observed
same,Recollection during anesthesia,[3]; 1 mg/kg,no recollection
same,Salvage treatment for sedation during surgery,[3]; 1 mg/kg,without performing a salvage treatment
same,Signs of awakening during the surgery,[3]; 1 mg/kg,not observed
same,Completion rate of endotracheal intubation,[3]; 12 mg/kg,100%
same,Time until loss of consciousness (range of actual values),[3]; 12 mg/kg,(48-120) sec
same,"Number of test subjects who developed hypotension, adverse event",[4]; human,3 Patients
same,Proportion of test subjects who developed hypotension as a side effect,[4]; human,20%
same,Average time until the patient opened eyes,[4],10.9 min
same,Average time until the patient stated the date of birth,[4],18.5 min
same,Average time until the patient were allowed to leave the surgery room,[4],19.1 min
same,Average time until the trachea was extubated,[4],13.6 min
same,Other side effects to be concerned or abnormal laboratory data,[4],not observed
same,Recollection during anesthesia,[4]; 1 mg/kg,no recollection
same,Salvage treatment for sedation during surgery,[4]; 1 mg/kg,without performing a salvage treatment
same,Signs of awakening during the surgery,[4]; 1 mg/kg,not observed
same,Completion rate of endotracheal intubation,[4]; 4 mg/kg,100%
same,Time until loss of consciousness (range of actual values),[4]; 4 mg/kg,(70-135) sec
same,Completion rate of endotracheal intubation,[5],100%
same,Other side effects to be concerned or abnormal laboratory data,[5],not observed
same,Vasostimulant,[6],does not cause the vasostimulant
